Experimental findings from patent US20160158200A1, “Combinations of Hepatitis C Virus Inhibitors” (priority 2013, published 2016) are described below.

Molecules are shown by their SMILES.

For the assay, the system named is HCV genotype-1a variant with glutamine 30 changed to glutamate in the NS5A protein. Format: cell-based. As to conditions: test compound titrated with BMS-790052 fixed at 200 nM; genotype 1a Q30E replicon. The source says: The NS5A synergistic inhibitory effect of test compounds can be determined using various amounts of an NS5A-targeting compound with titration of a second compound of interest. […] In one embodiment, the HCV genotype strain can be genotype 1a containing a change at amino acid 30 of the NS5A protein consisting of glutamine to glutamate. The test compound can be chosen from compounds listed above or from others present in the literature.
Background: In antiviral work, replicon cells carry a viral genome segment that copies itself.

Regarding `CC(C)[C@H](NC(=O)[C@H]1Cc2ccccc21)c1ncc(-c2ccc(-c3ccc(-c4cnc([C@@H](NC(=O)[C@H]5Cc6ccccc65)C(C)C)[nH]4)cc3)cc2)[nH]1` [Compound P-109], the “Fold-Synergistic 1a (Q30E)” value was more than 100 fold.
In the case of `CC(C)[C@H](NC(=O)c1cccc(Cl)c1Cl)c1ncc(-c2ccc(-c3ccc(-c4cnc([C@@H](NC(=O)c5cccc(Cl)c5Cl)C(C)C)[nH]4)cc3)cc2)[nH]1` [Compound S-66], the “Fold-Synergistic 1a (Q30E)” value is listed as more than 100 fold.
The figure for `CC1(C(=O)N[C@H](c2nc(-c3ccc(-c4ccc(-c5c[nH]c([C@@H](NC(=O)C6(C)COC6)C(C)(C)C)n5)cc4)cc3)c[nH]2)C(C)(C)C)COC1` [Compound N-113] is more than 100 fold; for `CC(C)(C)[C@H](NC(=O)C1(N2CCC(F)(F)CC2)COC1)c1nc(-c2ccc(-c3ccc(-c4c[nH]c([C@@H](NC(=O)C5(N6CCC(F)(F)CC6)COC5)C(C)(C)C)n4)cc3)cc2)c[nH]1` [Compound W-63] it is more than 100 fold.
With `CC(C)[C@H](NC(=O)[C@@H]1CCCO1)c1ncc(-c2ccc(-c3ccc(-c4cnc([C@@H](NC(=O)[C@@H]5CCCO5)C(C)C)[nH]4)cc3)cc2)[nH]1` [Compound P-66], the “Fold-Synergistic 1a (Q30E)” value is given as more than 100 fold.
In the case of `CC(C)(C)C(=O)N[C@H](c1ncc(-c2ccc(-c3cc4ccc(-c5cnc([C@@H](NC(=O)C(C)(C)C)C(C)(C)C)[nH]5)cc4o3)cc2)[nH]1)C(C)(C)C.O=C(O)C(F)(F)F` [Compound B62], the “Fold-Synergistic 1a (Q30E)” value is listed as more than 10 fold.
For `CC(C)(C)[C@H](NC(=O)[C@](C)(O)c1ccccc1)c1nc(-c2ccc(-c3ccc(-c4c[nH]c([C@@H](NC(=O)[C@](C)(O)c5ccccc5)C(C)(C)C)n4)cc3)cc2)c[nH]1` [Compound L-94], the “Fold-Synergistic 1a (Q30E)” value is reported as more than 100 fold.
The figure for `CC(C)(C)[C@H](NC(=O)Cc1ccccc1F)c1nc(-c2ccc(-c3ccc(-c4c[nH]c([C@@H](NC(=O)Cc5ccccc5F)C(C)(C)C)n4)cc3)cc2)c[nH]1` [Compound N-48] is more than 100 fold; for `COC(=O)N[C@@H](C(=O)N[C@H](c1ncc(-c2ccc(-c3ccc(-c4cnc([C@@H](NC(=O)[C@H](NC(=O)OC)C5CC5)C(C)C)[nH]4)cc3)cc2)[nH]1)C(C)C)C1CC1` [Compound P-102] it is more than 10 fold.
Under `CC(C)(C)[C@H](NC(=O)C1CCOCC1)c1nc(-c2ccc(-c3ccc(-c4c[nH]c([C@@H](NC(=O)C5CCOCC5)C(C)(C)C)n4)cc3)cc2)c[nH]1` [Compound W-123] stands more than 100 fold; under `CN(C)C(=N[C@H](c1ncc(-c2ccc(-c3ccc(-c4cnc([C@@H](NC(=O)C5(C6(O)CCNCC6)CCC5)C(C)(C)C)[nH]4)cc3)cc2)[nH]1)C(C)(C)C)N(C)C` [Compound B85], more than 10 fold.
Under `CC(C)[C@H](NC(=O)c1cc(Cl)ccc1Cl)c1ncc(-c2ccc(-c3ccc(-c4cnc([C@@H](NC(=O)c5cc(Cl)ccc5Cl)C(C)C)[nH]4)cc3)cc2)[nH]1` [Compound S-67] stands more than 100 fold; under `CC(C)[C@H](NC(=O)c1cc(C(C)(C)C)nn1C)c1ncc(-c2ccc(-c3ccc(-c4cnc([C@@H](NC(=O)c5cc(C(C)(C)C)nn5C)C(C)C)[nH]4)cc3)cc2)[nH]1` [Compound S-101], more than 100 fold; under `COCCC(=O)N[C@H](c1ncc(-c2ccc(-c3ccc(-c4cnc([C@@H](NC(=O)CCOC)C(C)C)[nH]4)cc3)cc2)[nH]1)C(C)C` [Compound S-51], more than 10 fold.
`CC(C)(C)OC(=O)N1C(C(=O)NC(c2nc(-c3ccc(-c4ccc(-c5c[nH]c(C(NC(=O)C6COC(C)(C)N6C(=O)OC(C)(C)C)C(C)(C)C)n5)cc4)cc3)c[nH]2)C(C)(C)C)COC1(C)C` [Compound L-55]: the “Fold-Synergistic 1a (Q30E)” value is more than 100 fold.
Regarding `CC(C)(C)C(=O)N1CCC(C)(C)C1c1nc(-c2ccc(-c3ccc(-c4c[nH]c(C5N(C(=O)C(C)(C)C)CCC5(C)C)n4)cc3)cc2)c[nH]1` (stereo not shown) [Compound W-219], the “Fold-Synergistic 1a (Q30E)” value is recorded as more than 10 fold.
The figure for `Cc1cc(-c2ccc(-c3c[nH]c([C@@H](NC(=O)C4(C)CCCC4)C(C)C)n3)cc2)ccc1-c1c[nH]c([C@@H](NC(=O)C2(C)CCCC2)C(C)C)n1.O=C(O)C(F)(F)F` [Compound N-80] is more than 100 fold.
Regarding `COC(C)(CO)C(=O)N[C@H](c1nc(-c2ccc(-c3ccc(-c4c[nH]c([C@@H](NC(=O)C(C)(CO)OC)C(C)(C)C)n4)cc3)cc2)c[nH]1)C(C)(C)C` (stereo partly shown) [Compound W-235], the “Fold-Synergistic 1a (Q30E)” value is listed as more than 100 fold.
As for `CC1(C(NC(=O)C(C)(C)C(O)C2(C)CC2)c2nc(-c3ccc(-c4ccc(-c5c[nH]c(C(NC(=O)C(C)(C)C(O)C6(C)CC6)C6(C)CC6)n5)cc4)cc3)c[nH]2)CC1` (mixture of isomers) [Compound N-156], the “Fold-Synergistic 1a (Q30E)” value is more than 100 fold.
Regarding `CC(C)[C@H](NC(=O)c1cc(Cl)ccc1F)c1ncc(-c2ccc(-c3ccc(-c4cnc([C@@H](NC(=O)c5cc(Cl)ccc5F)C(C)C)[nH]4)cc3)cc2)[nH]1` [Compound Y-24], the “Fold-Synergistic 1a (Q30E)” value is on record as more than 100 fold.
In the case of `CC(C)(C)OC(=O)NC1(C(=O)N[C@H](c2nc(-c3ccc(-c4ccc(-c5c[nH]c([C@@H](NC(=O)C6(NC(=O)OC(C)(C)C)CC6(F)F)C(C)(C)C)n5)cc4)cc3)c[nH]2)C(C)(C)C)CC1(F)F` (single isomer, unassigned) [Compound W-13], the “Fold-Synergistic 1a (Q30E)” value was more than 100 fold.
Take `C[C@H]1CCN(C(=O)C(=O)N2CCC(F)(F)CC2)C1c1nc(-c2ccc(-c3ccc(-c4c[nH]c(C5[C@@H](C)CCN5C(=O)C(=O)N5CCC(F)(F)CC5)n4)cc3)cc2)c[nH]1` (stereo partly shown) [Compound W-187]: the “Fold-Synergistic 1a (Q30E)” value is on record as more than 100 fold.
Under `CC(C)(C(=O)N[C@H](c1nc(-c2ccc(-c3ccc(-c4c[nH]c([C@@H](NC(=O)C(C)(C)C(F)F)C(C)(C)C)n4)cc3)cc2)c[nH]1)C(C)(C)C)C(F)F` [Compound P-32] stands more than 100 fold; under `CC(C)(C)[C@H](NC(=O)C(C)(C)C1(O)CCC(F)(F)CC1)c1nc(-c2ccc(-c3ccc(-c4c[nH]c([C@@H](NC(=O)C(C)(C)C5(O)CCC(F)(F)CC5)C(C)(C)C)n4)cc3)cc2)c[nH]1` [Compound P-149], more than 100 fold.
With `COC(=O)C12CCC(C(=O)N[C@H](c3nc(-c4ccc(-c5ccc(-c6c[nH]c([C@@H](NC(=O)C78CCC(C(=O)OC)(CC7)CC8)C(C)(C)C)n6)cc5)cc4)c[nH]3)C(C)(C)C)(CC1)CC2` [Compound W-127], the “Fold-Synergistic 1a (Q30E)” value was more than 100 fold.
With `CC(C)[C@H](NC(=O)C(C)(C)OCCF)c1ncc(-c2ccc(-c3ccc(-c4cnc([C@@H](NC(=O)C(C)(C)OCCF)C(C)C)[nH]4)cc3)cc2)[nH]1` [Compound Y-32], the “Fold-Synergistic 1a (Q30E)” value is more than 100 fold.
Under `CC(C)(CF)C(=O)N[C@H](c1nc(-c2ccc(-c3ccc(-c4c[nH]c([C@@H](NC(=O)C(C)(C)CF)C(C)(C)C)n4)cc3)cc2)c[nH]1)C(C)(C)C` [Compound P-19] stands more than 100 fold.
As to `CC(C)(C)C(=O)C(=O)N[C@H](c1nc(-c2ccc(-c3ccc(-c4c[nH]c([C@@H](NC(=O)C(=O)C(C)(C)C)C(C)(C)C)n4)cc3)cc2)c[nH]1)C(C)(C)C` [Compound W-238], the “Fold-Synergistic 1a (Q30E)” value was more than 100 fold.
In the case of `CC(C)[C@H](NC(=O)[C@H](NC(=O)OCc1ccccc1)C(C)C)c1ncc(-c2ccc(-c3ccc(-c4cnc([C@@H](NC(=O)[C@H](NC(=O)OCc5ccccc5)C(C)C)C(C)C)[nH]4)cc3)cc2)[nH]1` [Compound S-245], the “Fold-Synergistic 1a (Q30E)” value is more than 100 fold.
Under `CC(C)(C)[C@H](NC(=O)c1ccc(F)c(F)c1)c1nc(-c2ccc(-c3ccc(-c4c[nH]c([C@@H](NC(=O)c5ccc(F)c(F)c5)C(C)(C)C)n4)cc3)cc2)c[nH]1` [Compound N-51] stands more than 100 fold; under `CC(C)(C(=O)N[C@H](c1nc(-c2ccc(-c3ccc(-c4c[nH]c([C@@H](NC(=O)C(C)(C)C(O)C5CCC(F)(F)CC5)C(C)(C)C)n4)cc3)cc2)c[nH]1)C(C)(C)C)C(O)C1CCC(F)(F)CC1` (single isomer, unassigned) [Compound N-143A], more than 100 fold; under `CC(C)(C)[C@H](NC(=O)C(C)(C)C1(O)CCC(F)(F)CC1)c1ncc(-c2ccc(-c3ccc4nc([C@@H](NC(=O)C(C)(C)C5(O)CCC(F)(F)CC5)C(C)(C)C)[nH]c4c3)cc2)[nH]1` [Compound B58A], more than 100 fold.
The figure for `CC(C)[C@H](NC(=O)CCC(C)(C)C)c1ncc(-c2ccc(-c3ccc(-c4cnc([C@@H](NC(=O)CCC(C)(C)C)C(C)C)[nH]4)cc3)cc2)[nH]1` [Compound P-81] is more than 100 fold; for `CC(C)(C)OC(=O)N1CCCC[C@H]1C(=O)N[C@H](c1nc(-c2ccc(-c3ccc(-c4c[nH]c([C@@H](NC(=O)[C@@H]5CCCCN5C(=O)OC(C)(C)C)C(C)(C)C)n4)cc3)cc2)c[nH]1)C(C)(C)C` [Compound L-17] it is more than 100 fold.
For `CC(C)(C)OC(=O)N1CC2(CC2)C[C@H]1C(=O)N[C@H](c1nc(-c2ccc(-c3ccc(-c4c[nH]c([C@@H](NC(=O)[C@@H]5CC6(CC6)CN5C(=O)OC(C)(C)C)C(C)(C)C)n4)cc3)cc2)c[nH]1)C(C)(C)C` [Compound W-94], the “Fold-Synergistic 1a (Q30E)” value is reported as more than 100 fold.
Under `CC(C)[C@H](NC(=O)C1CCC(F)(F)CC1)c1ncc(-c2ccc(C#Cc3ccc4nc([C@@H](NC(=O)C5CCC(F)(F)CC5)C(C)C)[nH]c4c3)cc2)[nH]1` [Compound B51] stands more than 100 fold.
The figure for `CC(C)[C@H](NC(=O)c1cc(Cl)cc(Cl)c1)c1ncc(-c2ccc(-c3ccc(-c4cnc([C@@H](NC(=O)c5cc(Cl)cc(Cl)c5)C(C)C)[nH]4)cc3)cc2)[nH]1` [Compound S-76] is more than 100 fold.
